Consider seven compounds from patent publication US20220251141A1, “IMMUNOMODULATORS” (Bristol-Myers Squibb Company, priority 2019, published 2022).

Bridge positions count the residues as written; N and C are the ends. Square brackets hold non-standard residues; d marks the D form. Peptide text beside a SMILES is read from it. * marks the point of attachment. Trp(1-CH2COOH) = N[C@@H](Cc1cn(CC(=O)O)c2ccccc12)C(=O)O; Trp(1-Me) = Cn1cc(C[C@H](N)C(=O)O)c2ccccc21; Phe(4-F) = N[C@@H](Cc1ccc(F)cc1)C(=O)O; Hyp = O=C(O)[C@@H]1C[C@@H](O)CN1; NMeNle = CCCC[C@H](NC)C(=O)O; NMeC = CN[C@@H](CS)C(=O)O; Pip = O=C(O)[C@@H]1CCCCN1; Dab = NCC[C@H](N)C(=O)O; Dap = NC[C@H](N)C(=O)O; Piv = CC(C)(C)C(=O)*

For the assay, the target named is T1, PD-1/PD-L1 (Homo sapiens, UniProt Q9NZQ7).
T1 construct: TVMV protease site linker (C); made in house; host or cells: HEK293T cells
The experiment in a line: PD-1/PD-L1 Homogenous Time-Resolved Fluorescence (HTRF) binding assay. The settings on record: PD-L1-His 10 nM final, PD-1-Ig 20 nM final; inhibitors pre-incubated with PD-L1-His for 15 m. The essentials: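 Compounds pre-incubated 15 min with human PD-L1(18-239)-His (10 nM final), then PD-1(25-167)-Ig (20 nM final) added for 15 min, in dPBS with 0.1% BSA and 0.05% Tween-20. Eu-cryptate anti-Ig (1 nM) and APC anti-His (20 nM) added, 30 min equilibration, 665/620 nm ratio read; IC50 reported.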
Broadly, the IC50 is the concentration that gives 50% inhibition. The compound `CCCC[C@H]1C(=O)N(C)[C@@H](CCCC)C(=O)N[C@@H](CC(C)C)C(=O)N[C@H](C(N)=O)CSCC(=O)N[C@@H](Cc2ccc(F)cc2)C(=O)N2CCCC[C@H]2C(=O)N[C@@H](CC(=O)O)C(=O)N2CCC[C@H]2C(=O)N[C@@H](CNC(=O)C(C)(C)C)C(=O)N[C@@H](CC(C)C)C(=O)N2C[C@H](O)C[C@H]2C(=O)N[C@@H](Cc2c[nH]c3ccccc23)C(=O)N[C@@H](CCNC(=O)C(C)(C)C)C(=O)N[C@@H](Cc2cn(CC(=O)O)c3ccccc23)C(=O)N1C` [Example 20250] ({CH2CO}-[Phe(4-F)][Pip]DP[Dap](Piv)L[Hyp]W[Dab](Piv)[Trp(1-CH2COOH)][NMeNle][NMeNle]LC-NH2; thioether N-14) registered an IC50 of 22.9 nM. That is a double-digit nanomolar value.
`CCCC[C@H]1C(=O)N(C)[C@@H](CCCC)C(=O)N[C@@H](CC(C)C)C(=O)N[C@H](C(N)=O)CSCC(=O)N[C@@H](Cc2ccc(F)cc2)C(=O)N2CCCC[C@H]2C(=O)N[C@@H](CC(N)=O)C(=O)N2CCC[C@H]2C(=O)N[C@@H](CNC(=O)C(C)(C)C)C(=O)N[C@@H](CC(C)C)C(=O)N2C[C@H](O)C[C@H]2C(=O)N[C@@H](Cc2c[nH]c3ccccc23)C(=O)N[C@@H](CCN)C(=O)N[C@@H](Cc2cn(C)c3ccccc23)C(=O)N1C` [Example 20260] ({CH2CO}-[Phe(4-F)][Pip]NP[Dap](Piv)L[Hyp]W[Dab][Trp(1-Me)][NMeNle][NMeNle]LC-NH2; thioether N-14) gave a half-maximal inhibitory concentration (IC50) of 28.9 nM.
Compound `CCCC[C@H]1C(=O)N(C)[C@@H](CCCC)C(=O)N[C@@H](CCC(=O)O)C(=O)N[C@H](C(N)=O)CSCC(=O)N[C@@H](Cc2ccc(F)cc2)C(=O)N2CCCC[C@H]2C(=O)N[C@@H](CC(N)=O)C(=O)N2CCC[C@H]2C(=O)N[C@@H](CNC(=O)C(C)(C)C)C(=O)N[C@@H](CC(C)C)C(=O)N2C[C@H](O)C[C@H]2C(=O)N[C@@H](Cc2c[nH]c3ccccc23)C(=O)N[C@@H](CCN)C(=O)N[C@@H](Cc2cn(C)c3ccccc23)C(=O)N1C` [Example 20270] ({CH2CO}-[Phe(4-F)][Pip]NP[Dap](Piv)L[Hyp]W[Dab][Trp(1-Me)][NMeNle][NMeNle]EC-NH2; thioether N-14) came in with an IC50 of 43.2 nM.
`CCCC[C@H]1C(=O)N(C)[C@@H](CCCC)C(=O)N[C@@H](CC(C)C)C(=O)N[C@H](C(N)=O)CSCC(=O)N[C@@H](Cc2ccc(F)cc2)C(=O)N2CCCC[C@H]2C(=O)N[C@@H](CC(N)=O)C(=O)N2CCC[C@H]2C(=O)N[C@@H](CNC(=O)C(C)(C)C)C(=O)N[C@@H](CC(C)C)C(=O)N2C[C@H](O)C[C@H]2C(=O)N[C@@H](Cc2c[nH]c3ccccc23)C(=O)N[C@@H](CCNC(=O)C(C)(C)C)C(=O)N[C@@H](Cc2cn(C)c3ccccc23)C(=O)N1C` [Example 20280] ({CH2CO}-[Phe(4-F)][Pip]NP[Dap](Piv)L[Hyp]W[Dab](Piv)[Trp(1-Me)][NMeNle][NMeNle]LC-NH2; thioether N-14) gave a half-inhibitory concentration (IC50) of 50.3 nM.
The compound `CCCC[C@H]1C(=O)N(C)[C@@H](CCCC)C(=O)N[C@@H](CCC(=O)O)C(=O)N[C@H](C(N)=O)CSCC(=O)N[C@@H](Cc2ccc(F)cc2)C(=O)N2CCCC[C@H]2C(=O)N[C@@H](CC(=O)O)C(=O)N2CCC[C@H]2C(=O)N[C@@H](CNC(=O)C(C)(C)C)C(=O)N[C@@H](CC(C)C)C(=O)N2C[C@H](O)C[C@H]2C(=O)N[C@@H](Cc2c[nH]c3ccccc23)C(=O)N[C@@H](CCNC(=O)C(C)(C)C)C(=O)N[C@@H](Cc2cn(C)c3ccccc23)C(=O)N1C` [Example 20290] ({CH2CO}-[Phe(4-F)][Pip]DP[Dap](Piv)L[Hyp]W[Dab](Piv)[Trp(1-Me)][NMeNle][NMeNle]EC-NH2; thioether N-14) displayed an IC50 of 70.1 nM.
The compound `CCCC[C@H]1C(=O)N(C)[C@@H](CCCC)C(=O)N[C@@H](CC(C)C)C(=O)N[C@H](C(N)=O)CSCC(=O)N[C@@H](Cc2ccc(F)cc2)C(=O)N2CCCC[C@H]2C(=O)N[C@@H](CC(N)=O)C(=O)N2CCC[C@H]2C(=O)N[C@@H](CNC(=O)C(C)(C)C)C(=O)N[C@@H](CC(C)C)C(=O)N2C[C@H](O)C[C@H]2C(=O)N[C@@H](Cc2c[nH]c3ccccc23)C(=O)N[C@@H](CCN)C(=O)N[C@@H](Cc2cn(CC(=O)O)c3ccccc23)C(=O)N1C` [Example 20300] ({CH2CO}-[Phe(4-F)][Pip]NP[Dap](Piv)L[Hyp]W[Dab][Trp(1-CH2COOH)][NMeNle][NMeNle]LC-NH2; thioether N-14) showed a 50% inhibitory concentration (IC50) of 38.2 nM.
`CCCC[C@H]1C(=O)N(C)[C@@H](CCCC)C(=O)N[C@@H](CC(C)C)C(=O)N(C)[C@H](C(N)=O)CSCC(=O)N[C@@H](Cc2ccc(F)cc2)C(=O)N2CCCC[C@H]2C(=O)N[C@@H](CC(=O)N(C)C)C(=O)N2CCC[C@H]2C(=O)N[C@@H](CNC(=O)C(C)(C)C)C(=O)N[C@@H](CC(C)C)C(=O)N2C[C@H](O)C[C@H]2C(=O)N[C@@H](Cc2c[nH]c3ccccc23)C(=O)N[C@@H](CO)C(=O)N[C@@H](Cc2cn(CC(=O)O)c3ccccc23)C(=O)N1C` [Example 20310] ({CH2CO}-[Phe(4-F)][Pip]D(NMe2)P[Dap](Piv)L[Hyp]WS[Trp(1-CH2COOH)][NMeNle][NMeNle]L[NMeC]-NH2; thioether N-14) returned a concentration for half-maximal inhibition (IC50) of 18 nM. This IC50 is about 2.1-fold lower than that of the compound before.
